Calls of active or inactive are those of the source. No cut-off for these calls is given here.

One test deals with Mus musculus. Kind of test: Reduction in p-PI3K levels in BALB/c mouse tumor xenografted with human HeLa cells at 5 to 15 mg/kg, po by Western blot analysis. It counts as functional, organism-based. The following applies: Neoplasm, dose 5-15 mg/kg.
Test [1] addresses Phosphatidylinositol 4,5-bisphosphate 3-kinase catalytic subunit beta isoform (Homo sapiens, UniProt P42338). Briefly: Inhibition of PI3Kbeta (unknown origin) measured after 1 hr by ADP-glo plus luminescence assay. Background: In ADP-Glo the light output rises with the ADP produced.
The test system of test [2] is HeLa. Briefly: Antitumor activity against human HeLa cells xenografted in orally dosed BALB/c mouse assessed as reduction in tumor weight measured for 24 days. The settings on record: dose 5-15 mg/kg, time 24.0 day. The class given is functional, organism-based. (In general: A xenograft is tissue or cells of one species grown in another, often human tumour cells in immunodeficient mice.)

Test [3] has as its target Serine/threonine-protein kinase mTOR (Homo sapiens, UniProt P42345). Kind of test: Inhibition of mTOR (unknown origin) measured after 45 mins by LANCE Ultra assay. For orientation: Time-resolved FRET reads energy transfer from a long-lived donor to a nearby acceptor.
The test system of the next test is MDA-MB-231. Kind of test: Anticancer activity against human […] cells assessed as inhibition of cell proliferation measured after 48 hrs by MTT assay. The class given is functional, cell-based. The following applies: MDA-MB-231, 48 h.
For test [4], the system named is HeLa. Briefly: Inhibition of cell migration in human HeLa cells incubated for 72 hrs by wound healing assay. The class given is functional, cell-based. The settings on record: dose 4-12 µM.
The test system of test [5] is HeLa. Kind of test: Induction of apoptosis in human HeLa cells assessed as early apoptotic cells at 4 uM measured after 24 hrs by Annexin-V/FITC and propidium iodide staining based flow cytometry (reference value: 1.60%). The class given is functional.
Test [6] deals with HeLa. Briefly: Induction of cell cycle arrest in human HeLa cells assessed as accumulation at G2 phase at 4 uM after 24 hrs by RNase A/PI-staining based flow cytometric analysis (reference value: 30.62%). The class given is functional.
Test [7] has as its system HeLa. Kind of test: Induction of apoptosis in human HeLa cells assessed as increase in Bcl-2 level upto 12 uM by Western blot analysis. It counts as functional, cell-based. The settings on record: dose microM <=12.
Test [8] deals with HeLa. Kind of test: Inhibition of cell invasion in human HeLa cells incubated for 24 hrs by crystal violet staining based transwell assay. The class given is functional. The settings on record: dose 4-12 µM.
For test [9], the system named is HeLa. Briefly: Inhibition of PI3K/AKT pathway in human HeLa cells assessed as reduction phosphorylated Akt level upto 12 uM by Western blot analysis. It counts as cell-based. The following applies: dose microM <=12.
The test system of test [10] is HeLa. Kind of test: Induction of cell cycle arrest in human HeLa cells assessed as accumulation at G1 phase at 8 uM after 24 hrs by RNase A/PI-staining based flow cytometric analysis (reference value: 52.21%). The class given is functional.
For test [11], the system named is HeLa. Kind of test: Induction of cell cycle arrest in human HeLa cells assessed as accumulation at G1 phase at 4 uM after 24 hrs by RNase A/PI-staining based flow cytometric analysis (reference value: 52.21%). It counts as functional.
In the next test the test system is MCF7. Kind of test: Anticancer activity against human MCF-7 cells assessed as inhibition of cell proliferation measured after 48 hrs by MTT assay. It counts as functional, cell-based. The following applies: MCF7, 48 h.
The test system of test [12] is HeLa. Kind of test: Induction of cell cycle arrest in human HeLa cells assessed as accumulation at S phase at 8 uM after 24 hrs by RNase A/PI-staining based flow cytometric analysis (reference value: 17.17%). It counts as functional.

Sequence of Phosphatidylinositol 4,5-bisphosphate 3-kinase catalytic subunit beta isoform (P42338 whole entry, canonical isoform): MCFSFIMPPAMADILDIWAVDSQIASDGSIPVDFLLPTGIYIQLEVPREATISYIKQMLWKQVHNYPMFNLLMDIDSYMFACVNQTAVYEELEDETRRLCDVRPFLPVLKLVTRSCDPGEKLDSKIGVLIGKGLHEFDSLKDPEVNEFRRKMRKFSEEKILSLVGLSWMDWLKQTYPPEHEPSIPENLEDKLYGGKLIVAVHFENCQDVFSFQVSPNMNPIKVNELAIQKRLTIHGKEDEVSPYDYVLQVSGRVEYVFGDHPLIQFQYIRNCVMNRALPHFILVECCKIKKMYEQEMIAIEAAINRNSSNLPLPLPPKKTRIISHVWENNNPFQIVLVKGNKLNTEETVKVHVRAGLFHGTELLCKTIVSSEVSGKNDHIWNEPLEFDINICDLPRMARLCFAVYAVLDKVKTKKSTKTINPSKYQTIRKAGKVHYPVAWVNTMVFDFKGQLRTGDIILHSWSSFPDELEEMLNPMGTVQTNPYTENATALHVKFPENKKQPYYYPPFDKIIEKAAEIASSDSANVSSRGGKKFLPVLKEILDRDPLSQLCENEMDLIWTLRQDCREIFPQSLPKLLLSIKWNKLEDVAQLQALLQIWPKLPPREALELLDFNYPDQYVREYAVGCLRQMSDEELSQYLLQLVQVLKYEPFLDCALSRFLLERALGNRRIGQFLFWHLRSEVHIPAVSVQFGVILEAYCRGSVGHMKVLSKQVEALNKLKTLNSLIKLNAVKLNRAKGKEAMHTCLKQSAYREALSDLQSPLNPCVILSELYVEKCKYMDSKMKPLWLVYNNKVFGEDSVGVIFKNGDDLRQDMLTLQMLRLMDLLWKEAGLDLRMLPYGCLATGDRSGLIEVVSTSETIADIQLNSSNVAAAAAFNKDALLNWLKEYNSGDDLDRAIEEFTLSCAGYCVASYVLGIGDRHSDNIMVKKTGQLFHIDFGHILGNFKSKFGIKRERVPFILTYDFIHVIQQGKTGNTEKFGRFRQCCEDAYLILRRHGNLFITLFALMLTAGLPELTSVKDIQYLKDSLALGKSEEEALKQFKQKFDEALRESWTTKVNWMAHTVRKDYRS

Turning to `O=S(=O)(c1ccc(O)cc1)N1CCN(c2nc(NCCN3CCOCC3)nc(N3CCOCC3)n2)CC1`, the inhibition entry in the test on Mus musculus and in the test with HeLa [9] was “Active” in each case. The half-maximal inhibitory concentration (IC50) (as a rule, the point on the concentration scale where inhibition reaches its midpoint) in test [1] came to 12.3 nM; in test [3], 8.45 nM; in the test on MDA-MB-231, 15.8 µM; with MCF7, 16.3 µM. The Activity entry is “Dose-dependent effect” in the test on HeLa [2]; “Dose-dependent effect” with HeLa [4]; 2.71% with HeLa [5]; 20.38% with HeLa [6]; “Dose-dependent effect” in the test on HeLa [8]; 20.38% in the test on HeLa [10]. The Activity in the test on HeLa [11] stood at 59.18%; in the test on HeLa [12] it was 19.52%. In the test with HeLa [7], the outcome was Active.

Source of the values: ChEMBL document CHEMBL4680347, “Discovery of novel 1,3,5-triazine derivatives as potent inhibitor of cervical cancer via dual inhibition of PI3K/mTOR” (Bioorg Med Chem, 2021).
